What was measured:
PC-12 cells [1] = test: Western blot of stress/apoptosis markers in PC-12 cells under hypoxia/reoxygenation; format: cell-based
Experimental: For the Western blot assays, animals were deeply anesthetized by isoflurane (Phoenix) and decapitated, and then brains were rapidly removed. After sacrifice, the while the brain was on ice, the left hemisphere and the right hemisphere (identical parts) were quickly dissected on dry ice and homogenized in Lysis buffer consisting of 50 mM Tris-HCl, 150 mM NaCl, 2 mM EDTA, pH 8.0, 1% Triton-X-100, 1:100 dilution of mammalian protease inhibitors (Sigma-Aldrich, MO, USA) and protease inhibitor for immunoblotting. Protein concentrations of each sample solution were determined with a Bradford protein assay, and samples were stored at −80° C. until use. Protein samples were separated by 12% sodium dodecyl sulfate-polyacrylamide gel electrophoresis and transferred onto nitrocellulose membranes. Western blot was performed using the following primary antibodies overnight: abcam: GRP 78, HSP70, HSP 27, activating transcription factor 4 (ATF4), and X-box-binding protein 1 (XBP-1) (1:500); Cell Signaling: GAPDH (1:3,000), Bax, BCL2 (1:1,000), AKT, phosphorylated AKT (p-AKT); Santa Cruz: CHOP/GADD153); Imgenex: ATF6 (1:1,500). The membranes were washed three times with Tris-buffered saline containing 0.1% Tween-20 (TBS-T) and incubated with secondary antibodies for 1 hour at room temperature. Secondary antibodies used were goat IRDye 800-conjugated anti-rabbit (1:15,000) and IRDye 680 conjugated anti-mouse (1:15,000) antibodies (LI-COR Biosciences, Lincoln, Nebr., USA). Fluorescent signals were detected with a LI-COR Odyssey Fc system and the images were quantified with the provided either Image Studio 2.0 software or image J software.
(§1) In another set of experiments, the effect of carbamathione on cell viability and expression of various biomarkers in PCT-12 cells exposed to hypoxia/reoxygenation was evaluated. Referring to FIG. 9, PC-12 cells were exposed to hypoxia and reoxygenation in the presence or in the absence of 5-100 μM carbamathione. […] Referring to FIGS. 13 and 14, GRP 78, CHOP, Caspase-12, and cleaved Caspase-12 expression induced by hypoxia-reoxygenation were each inhibited by carbamathione.

[2] = test system: bilateral carotid artery occlusion (BCAO) mice; test: Western blot of brain tissue in BCAO stroke model; format: in vivo
Experimental: (§2) For the bilateral carotid artery occlusion assay (BCAO) experiments, male Swiss Webster mice (20 weeks of age) were obtained from Charles River laboratory. The mice were allowed access to water only and kept fasting overnight before surgery. Mice were anesthetized with ketamine (100 mg/kg, i.p.) plus xylazine (10 mg/kg, i.p.). For induction of anesthesia, mice were exposed to a gaseous mixture consisting of 30% oxygen, 70% N2O and 0.5% isoflurane using a vaporizer. For maintenance of anesthesia, isoflurane concentration was used to 0.5%. Mice were breathing spontaneously via breathing mask throughout the surgical procedure. A rectal temperature probe was inserted. During surgery, mice were resting on a thermostat-controlled heating pad, ensuring a constant core temperature of 37.0±0.5° C.
While anesthesia was maintained as described above, each mouse was placed on its back, and its tail and paws were fixed to the heating pad using adhesive tape. A sagittal ventral midline incision (˜1 cm length) was performed. Both common carotid arteries (CCAs) were isolated, freed of nerve fibers, and occluded using non-traumatic aneurysm clips. Complete interruption of blood flow was confirmed under an operating microscope. After 30 min of ischemia, the aneurysm clips were removed from both CCAs. Restoration of blood flow (reoxygenation) was observed directly under the microscope. Sham-operated controls were subjected to the same surgical procedures except that CCAs were not occluded. The body temperature was monitored and maintained at 37° C.±0.5° C. during the immediate postoperative period until the animals recovered fully from anesthesia.
Animals were randomly assigned for sham, control, and experimental groups. Thereafter, in experimental group (carbamathione treated group, N=9), carbamathione (14 mg/kg in 0.3 mL saline 0.9%) was injected subcutaneously 30 min after occlusion and continued daily until the animal was sacrificed. In control groups (vehicle-treated group, N=9), vehicle (0.3 ml saline 0.9%) was injected subcutaneously 30 min after occlusion. Sham-operated group (N=6) received the same surgical procedure without occlusion of common carotid artery. After surgery, animals were allowed to recover from the anesthesia, and given food and water ad libitum. The animals were daily examined for body temperature and weight, and those who had body temperature more than 39° C. after 24 hour were excluded from the experiment.
For the Western blot assays, animals were deeply anesthetized by isoflurane (Phoenix) and decapitated, and then brains were rapidly removed. […] Protein concentrations of each sample solution were determined with a Bradford protein assay, and samples were stored at −80° C. until use. […]

[3] = test system: bilateral carotid artery occlusion (BCAO) mice; test: Corner test in BCAO stroke model; format: in vivo; details: 14 mg/kg s.c. daily; up to 4 days after BCAO; untreated BCAO ~90% to one side; FIG. 21
Experimental: as §2, with “During surgery, mice were resting on a thermostat-controlled heating pad, ensuring a constant core temperature of 37.0±0.5° C.” left out
While anesthesia was maintained as described above, each mouse was placed on its back, and its tail and paws were fixed to the heating pad using adhesive tape. […] The body temperature was monitored and maintained at 37° C.±0.5° C. during the immediate postoperative period until the animals recovered fully from anesthesia.
The Corner test, which determines an animal's asymmetric direction of turning when encountering a corner, is used as an indicator of brain injury. […] Each mouse took part in ten trials, after which we calculated the percentage of turns to each side, recording only those turns involving full rearing along one of the boards. […]

PC-12 cells [4] = test: ATP assay of cell viability, PC-12 cells under hypoxia/reoxygenation; format: cell-based; details: 5-100 μM carbamathione; hypoxia and reoxygenation; without treatment about 47% of control; FIG. 9
Experimental: as §1

[5] = test system: bilateral carotid artery occlusion (BCAO) mice; test: Locomotor activity on force-plate actometer in BCAO stroke model; format: in vivo; details: 14 mg/kg s.c. daily; 4 days after BCAO; FIG. 22
Experimental: as §2
While anesthesia was maintained as described above, each mouse was placed on its back, and its tail and paws were fixed to the heating pad using adhesive tape. A sagittal ventral midline incision (˜1 cm length) was performed. Both common carotid arteries (CCAs) were isolated, freed of nerve fibers, and occluded using non-traumatic aneurysm clips. Complete interruption of blood flow was confirmed under an operating microscope. […] The body temperature was monitored and maintained at 37° C.±0.5° C. during the immediate postoperative period until the animals recovered fully from anesthesia. […]

[6] = test system: bilateral carotid artery occlusion (BCAO) mice; test: Brain infarct by TTC staining in BCAO stroke model; format: in vivo; details: 14 mg/kg subcutaneously 30 min after occlusion
Experimental: as §2
While anesthesia was maintained as described above, each mouse was placed on its back, and its tail and paws were fixed to the heating pad using adhesive tape. A sagittal ventral midline incision (˜1 cm length) was performed. […] The body temperature was monitored and maintained at 37° C.±0.5° C. during the immediate postoperative period until the animals recovered fully from anesthesia. […]
Mice were euthanized 4 days after surgery. […] To assess lesion volume, TTC-stained slices (2, 4, 6, 8, and 10 mm from the frontal pole) were scanned using a scanner and analyzed by Image-J analysis software. […]

PC-12 cells [7] = details: 10 mM glutamate for 24 hours
Experimental: PC-12 cells (purchased from ATCC, Manassas, Va., USA) were cultured in a petri dish for one week prior to use. PC-12 cells were maintained at 37° C./5% CO2 in an incubator, and fed every other day using F12-K medium supplemented with 5% (v/v) fetal bovine serum (FBS), 10% (v/v) heat-inactivated horse serum (HS) and 1% (v/v) penicillin-streptomycin solution. Experiments were performed on undifferentiated cells plated in 96-well plates at a density of approximately 5×10^4 cells/ml for the ATP assay. On first day of use, cells were harvested by first adding 2 mL trypsin and incubated for 15 minutes. 2 mL fresh medium was then used as a wash and cells were spun, and re-suspended. Cell density was determined by cell counting using a hemocytometer and a tissue culture microscope. After cell density was determined, 96-well plates and 6-well plates were plated with 2.5×10^4 cells per well and 5×10^5 cells per well for the adenosine 5′-triphosphate (ATP) assay and Western blot analysis, respectively.
Cell cultures were preincubated with 0.5 μM to 500 μM concentration of carbamathione for one hour. […] For the ATP assay, ATP solution was added to each well, and cells were incubated for 10 min after which time the amount of ATP was quantified through a luciferase reaction. The luminescence intensity was determined using a luminometer with lysates in a standard opaque-walled multi-well plate. […]

[8] = after 4 days, compared to vehicle treated group, FIG. 23
[9] = day 4 post BCAO, compared with vehicle treated group, FIG. 24

CCN(CC)C(=O)SC[C@H](NC(=O)CC[C@H](N)C(=O)O)C(=O)NCC(=O)O [carbamathione, S—(N,N-diethylcarbamoyl)glutathione]
CHOP expression induced by hypoxia-reoxygenation (PC-12 cells [1]; FIG. 13): inhibited
GRP 78 expression induced by hypoxia-reoxygenation (PC-12 cells [1]; FIG. 13): inhibited
Caspase-12 expression induced by hypoxia-reoxygenation (PC-12 cells [1]; FIG. 14): inhibited
cleaved Caspase-12 expression induced by hypoxia-reoxygenation (PC-12 cells [1]; FIG. 14): inhibited
ATF4 expression induced by hypoxia-reoxygenation (PC-12 cells [1]; FIG. 15): inhibited
ATF6 expression induced by hypoxia-reoxygenation (PC-12 cells [1]; FIG. 16): inhibited
XBP1 expression induced by hypoxia-reoxygenation (PC-12 cells [1]; FIG. 17): inhibited
Bax expression (upregulation induced by hypoxia/reoxygenation) (PC-12 cells [1]; FIG. 18): decreased the upregulation
Bcl2 expression (downregulation induced by hypoxia/reoxygenation) (PC-12 cells [1]; FIG. 18): increased the downregulation
decrease in the Bcl2:Bax ratio induced by hypoxia/reoxygenation (PC-12 cells [1]; FIG. 18): inhibited
cleaved Caspase-3 expression (upregulation induced by hypoxia/reoxygenation) (PC-12 cells [1]; FIG. 19): decreased the upregulation
AKT expression (PC-12 cells [1]; hypoxia-reoxygenation, FIG. 12): no changes
Hsp 27 expression (PC-12 cells [1]; hypoxia-reoxygenation, compared to hypoxia-reoxygenation alone, FIG. 10): greater over-expression
Hsp 70 expression (PC-12 cells [1]; hypoxia-reoxygenation, compared to hypoxia-reoxygenation alone, FIG. 11): greater over-expression
P-AKT expression (PC-12 cells [1]; hypoxia-reoxygenation, compared to hypoxia-reoxygenation alone, FIG. 12): up-regulated
CHOP expression in the brains [2, 8]: decreased dramatically
GRP 78 expression in the brains [2, 8]: decreased dramatically
Bax expression in the brains [2, 9]: decreased expression
Bcl2 expression in the brains [2, 9]: significantly increased expression
asymmetric turning in Corner test [3]: not significant differently from that seen in the sham-operated mice
cell viability (ATP levels) (PC-12 cells [4]): dramatically increased the cell viability
locomotor activity [5]: statistically significantly different than BCAO with vehicle group
infarct size (TTC staining) ([6]; daily, 4 days after surgery, 2, 4, 6, 8, 10 mm from frontal pole, FIG. 20): noticeably reduced
volume of the lesion ([6]; sections 2, 4, 6, 8 and 10 mm, 30 min transient BCAO, FIG. 20c): markedly reduced

N[C@@H](CCC(=O)O)C(=O)O [glutamate]
survival of PC-12 cells (ATP assay) (PC-12 cells [7]): about 45%
